This note sets out measurements from patent publication US11919855B2, “Substituted pyrrolidones and piperidones as small molecule inhibitors of EZH2 and EED protein binding” (Northwestern University, priority 2021, dated 2024).

Bounds are passed on as bounds.

For this experiment, the target named is EED-EZH2 (Homo sapiens (Human), UniProt O75530). Put plainly: EED-EZH2 AlphaScreen assay. The experiment is classed as binding. To be noted: 8.7 nM EZH2, 5.0 nM EED, read-out: IC50 Potency Code. The method, then: Biological activity of exemplary substituted pyrrolidones and piperidones was determined by the EED-EZH2 AlphaScreen assay according the following methodology.
EZH2 (non-complexed), His-GST-tags
Anti-FLAG AlphaLISA Acceptor Beads
AlphaScreen GSH Donor Beads
Assay Protocol (Calculated for 384 Wells or 1 Plate)
• 1. Thaw EED and EZH2 proteins on ice. • 2. Prepare 1× HMT Buffer 2: • 1.5 mL of 4× HMT Buffer 2+4.5 mL ddH2O. • 3. Prepare 1.2× EED-EZH2 solution in 1× HMT Buffer 2: 3.4 mL total • 2.1 uL of EED (0.41 mg/mL, 8.04 uM, 1:1608 dilution)+14 uL of EZH2 (0.24 mg/mL, 2.11 uM, 1:243 dilution)+3.384 mL of 1× HMT Buffer 2 • 4. Prepare 1.2× EZH2 solution in 1× HMT Buffer 2 (positive control): 0.168 mL total • 0.69 uL of EZH2 (0.24 mg/mL, 2.11 uM, 1:243 dilution)+167 uL of 1× HMT Buffer 2 • 5. Add 10 μL of 1.2× EED-EZH2 or 1.2× EZH2 solution to each well. • 6. Add compounds in DMSO via Echo transfer and 30 nL DMSO for control wells. • 7. Centrifuge at 15,000 rpm for 10 seconds and allow to incubate at rt for 1 hour. Step Two • 1. Prepare 6× Anti-FLAG and GSH Donor beads in 1× HMT Buffer 2 in the dark: 1 mL total • 10 uL of Anti-FLAG (1:100 dilution)+5 uL of GSH Donor (1:200 dilution)+985 uL of 1× HMT Buffer 2 • 2. Add 2 μL of bead solution to each well. • 3. Centrifuge at 15,000 rpm for 10 seconds and allow to incubate at rt for 1 hour in the dark. • 4. Read plate. Final Concentrations: • 12 μL volume per well • 8.7 nM EZH2 • 5.0 nM EED • DMSO<0.5% Calculations: • 1. Average EZH2 only wells (positive control) and subtract from all other wells. • 2. Average EED-EZH2 only wells (negative control) to indicate 100% signal or 0% inhibition. • 3. Normalize each well to the average 100% signal from step 2. • 4. Report either as normalized % inhibition or normalized % signal. • Use GraphPad to Calculate IC50.
(In general: Alpha assays give light when donor and acceptor beads are brought close together.)

Chain of EED-EZH2 (O75530 2-441): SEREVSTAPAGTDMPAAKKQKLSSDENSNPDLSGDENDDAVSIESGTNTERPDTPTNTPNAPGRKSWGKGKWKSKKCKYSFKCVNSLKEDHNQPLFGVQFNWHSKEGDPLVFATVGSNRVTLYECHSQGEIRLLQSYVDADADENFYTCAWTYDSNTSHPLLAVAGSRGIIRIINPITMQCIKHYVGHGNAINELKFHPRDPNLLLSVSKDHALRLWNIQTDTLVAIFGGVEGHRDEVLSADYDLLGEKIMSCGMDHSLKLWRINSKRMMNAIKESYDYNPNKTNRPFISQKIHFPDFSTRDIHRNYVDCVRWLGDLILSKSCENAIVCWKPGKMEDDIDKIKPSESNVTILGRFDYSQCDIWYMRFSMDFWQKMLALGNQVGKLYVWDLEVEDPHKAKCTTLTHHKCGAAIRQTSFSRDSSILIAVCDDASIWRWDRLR

What is called IC50 is the concentration at which inhibition is half-maximal. As to `Cc1ccc(O)c(C(=O)NC2CC(=O)N(Cc3ccccc3C(F)(F)F)C2)c1` (centres unmarked) [NUCC-0163358], the IC50 is 1 to 10 µM. As for `Cc1ccc(O)c(C(=O)NC2CC(=O)N(Cc3ccccc3[N+](=O)[O-])C2)c1` (centres unmarked) [NUCC-0202653], the IC50 was 1 to 10 µM. In the case of `COc1ccc(C)cc1C(=O)NC1CC(=O)N(Cc2ccccc2[N+](=O)[O-])C1` (centres unmarked) [NUCC-0202654] it was more than 50 µM; in that of `COc1cccc(CC(=O)NC2CC(=O)N(Cc3ccccc3[N+](=O)[O-])C2)c1` (centres unmarked) [NUCC-0202655], more than 50 µM; in that of `Cc1c(C(=O)NC2CC(=O)N(Cc3ccccc3[N+](=O)[O-])C2)cccc1[N+](=O)[O-]` (centres unmarked) [NUCC-0202656], more than 50 µM. Under `O=C(NC1CC(=O)N(Cc2ccccc2[N+](=O)[O-])C1)c1cccnc1` (centres unmarked) [NUCC-0202657] stands more than 50 µM.

In the case of `O=C(O)c1ccccc1C(=O)NC1CC(=O)N(Cc2ccccc2[N+](=O)[O-])C1` (centres unmarked) [NUCC-0202658], the IC50 is more than 50 µM. Under `N#Cc1cccc(C(=O)NC2CC(=O)N(Cc3ccccc3[N+](=O)[O-])C2)c1` (centres unmarked) [NUCC-0202659] stands more than 50 µM; under `COc1ccc(C)cc1C(=O)NC1CC(=O)N(Cc2ccccc2C(F)(F)F)C1` (centres unmarked) [NUCC-0202660], 10 to 50 µM; under `COc1cccc(CC(=O)NC2CC(=O)N(Cc3ccccc3C(F)(F)F)C2)c1` (centres unmarked) [NUCC-0202661], more than 50 µM. Turning to `Cc1c(C(=O)NC2CC(=O)N(Cc3ccccc3C(F)(F)F)C2)cccc1[N+](=O)[O-]` (centres unmarked) [NUCC-0202662], the IC50 is more than 50 µM.

With `O=C(NC1CC(=O)N(Cc2ccccc2C(F)(F)F)C1)c1cccnc1` (centres unmarked) [NUCC-0202663], the IC50 was more than 50 µM. Under `O=C(O)c1ccccc1C(=O)NC1CC(=O)N(Cc2ccccc2C(F)(F)F)C1` (centres unmarked) [NUCC-0202666] stands more than 50 µM; under `O=C(NC1CC(=O)N(Cc2ccccc2C(F)(F)F)C1)c1cccc(-c2ccccc2)c1` (centres unmarked) [NUCC-0202667], more than 50 µM.

With `Cc1cccc(C(=O)NC2CC(=O)N(Cc3ccccc3C(F)(F)F)C2)c1` (centres unmarked) [NUCC-0202668], the IC50 was more than 50 µM. For `O=C(NC1CC(=O)N(Cc2ccccc2C(F)(F)F)C1)c1ccccc1O` (centres unmarked) [NUCC-0202669], the IC50 was more than 50 µM. Under `O=C(NC1CC(=O)N(Cc2ccccc2C(F)(F)F)C1)c1ccc(Cl)c(Cl)c1` (centres unmarked) [NUCC-0202670] stands more than 50 µM; under `O=C(NC1CC(=O)N(Cc2ccccc2C(F)(F)F)C1)c1ccc2cc[nH]c2c1` (centres unmarked) [NUCC-0202671], more than 50 µM; under `Cc1ccc(O)c(C(=O)NC2CC(=O)N(Cc3ccc(Cl)c(Cl)c3)C2)c1` (centres unmarked) [NUCC-0202672], 10 to 50 µM. Regarding `COc1ccc(C)cc1C(=O)NC1CC(=O)N(Cc2ccc(Cl)c(Cl)c2)C1` (centres unmarked) [NUCC-0202673], the half-inhibitory concentration (IC50) is more than 50 µM. As to `O=C(NC1CC(=O)N(Cc2ccc(Cl)c(Cl)c2)C1)c1ccccc1O` (centres unmarked) [NUCC-0202674], the IC50 is more than 50 µM. Turning to `O=C(NC1CC(=O)N(Cc2ccc(Cl)c(Cl)c2)C1)c1cccnc1` (centres unmarked) [NUCC-0202675], the IC50 is more than 50 µM. For `O=C(O)c1ccccc1C(=O)NC1CC(=O)N(Cc2ccc(Cl)c(Cl)c2)C1` (centres unmarked) [NUCC-0202676], the IC50 is more than 50 µM. In the case of `O=C(NC1CC(=O)N(Cc2ccc(Cl)c(Cl)c2)C1)c1cccc(-c2ccccc2)c1` (centres unmarked) [NUCC-0202677] it was more than 50 µM; in that of `Cc1cccc(C(=O)NC2CC(=O)N(Cc3ccc(Cl)c(Cl)c3)C2)c1` (centres unmarked) [NUCC-0202678], more than 50 µM. Regarding `Cc1ccc(O)c(C(=O)N(C)C2CC(=O)N(Cc3ccccc3C(F)(F)F)C2)c1` (centres unmarked) [NUCC-0202747], the IC50 is more than 50 µM. In the case of `O=C(NC1CC(=O)N(Cc2ccccc2C(F)(F)F)C1)c1cccc2cc[nH]c12` (centres unmarked) [NUCC-0202749, N-(5-oxo-1-(2-(trifluoromethyl)benzyl)pyrrolidin-3-yl)-1H-indole-7-carboxamide] it was more than 50 µM.

`Cc1ccc(C(=O)NC2CC(=O)N(Cc3ccccc3C(F)(F)F)C2)c(O)c1` (centres unmarked) [NUCC-0202750]: the IC50 was more than 50 µM. For `Cc1cccc(C(=O)NC2CC(=O)N(Cc3ccccc3C(F)(F)F)C2)c1O` (centres unmarked) [NUCC-0202751], the IC50 is more than 50 µM.

In the case of `CC(C)(C)c1ccc(O)c(C(=O)NC2CC(=O)N(Cc3ccccc3C(F)(F)F)C2)c1` (centres unmarked) [NUCC-0202752], the half-inhibitory concentration (IC50) is more than 50 µM.

As to `CCc1ccc(O)c(C(=O)NC2CC(=O)N(Cc3ccccc3C(F)(F)F)C2)c1` (centres unmarked) [NUCC-0202753], the IC50 was more than 50 µM.

Consider `Cc1ccc(O)cc1C(=O)NC1CC(=O)N(Cc2ccccc2C(F)(F)F)C1` (centres unmarked) [NUCC-0202754], for which the IC50 was more than 50 µM.

With `O=C(NC1CC(=O)N(Cc2ccccc2C(F)(F)F)C1)c1cnon1` (centres unmarked) [NUCC-0202755], the IC50 was more than 50 µM. Under `O=C(Cc1cc2ccccc2[nH]1)NC1CC(=O)N(Cc2ccccc2C(F)(F)F)C1` (centres unmarked) [NUCC-0202756] stands more than 50 µM; under `O=C(NC1CC(=O)N(Cc2ccccc2C(F)(F)F)C1)c1ccnc(Cl)n1` (centres unmarked) [NUCC-0202757], more than 50 µM; under `O=C(NC1CC(=O)N(Cc2ccccc2C(F)(F)F)C1)c1ccc2ccccc2n1` (centres unmarked) [NUCC-0202758], more than 50 µM. Consider `O=C(NC1CC(=O)N(Cc2ccccc2C(F)(F)F)C1)c1cscn1` (centres unmarked) [NUCC-0202759], for which the IC50 was more than 50 µM. With `O=C(NC1CC(=O)N(Cc2ccccc2C(F)(F)F)C1)c1coc2ccccc12` (centres unmarked) [NUCC-0202760], the half-maximal inhibitory concentration (IC50) was more than 50 µM. In the case of `O=C(NC1CC(=O)N(Cc2ccccc2C(F)(F)F)C1)c1ccc2ccccc2c1O` (centres unmarked) [NUCC-0202761], the half-maximal inhibitory concentration (IC50) was 10 to 50 µM. Under `O=C(NC1CC(=O)N(Cc2ccccc2C(F)(F)F)C1)c1ccc(Cl)nc1Cl` (centres unmarked) [NUCC-0202762] stands more than 50 µM. Turning to `O=C(NC1CC(=O)N(Cc2ccccc2C(F)(F)F)C1)c1ccccc1F` (centres unmarked) [NUCC-0202763], the IC50 is more than 50 µM.

Consider `Cn1nccc1C(=O)NC1CC(=O)N(Cc2ccccc2C(F)(F)F)C1` (centres unmarked) [NUCC-0202764], for which the IC50 was more than 50 µM. In the case of `O=C(NC1CC(=O)N(Cc2ccccc2C(F)(F)F)C1)c1ccc(Br)c(O)c1` (centres unmarked) [NUCC-0202765] it was more than 50 µM.

Regarding `O=C1CC(Nc2n[nH]c3ccccc23)CN1Cc1ccccc1C(F)(F)F` (centres unmarked) [NUCC-0202766], the IC50 was more than 50 µM. Turning to `O=C(NC1CC(=O)N(Cc2ccccc2C(F)(F)F)C1)c1cc(Cl)nc2ccccc12` (centres unmarked) [NUCC-0202792], the IC50 was more than 50 µM. Under `Cc1ccc(N)c(C(=O)NC2CC(=O)N(Cc3ccccc3C(F)(F)F)C2)c1` (centres unmarked) [NUCC-0202793] stands more than 50 µM.

With `Cc1ccc(O)c(C(=O)NC2CC(=O)N(Cc3ccccc3C(F)(F)F)C2)c1` (centres unmarked) [NUCC-0202826], the IC50 was more than 50 µM. As for `Cc1cccc(O)c1C(=O)NC1CC(=O)N(Cc2ccccc2C(F)(F)F)C1` (centres unmarked) [NUCC-0202827], the IC50 was more than 50 µM. With `Cc1c[nH]c(=O)c(C(=O)NC2CC(=O)N(Cc3ccccc3C(F)(F)F)C2)c1` (centres unmarked) [NUCC-0202828], the IC50 was more than 50 µM. With `O=C(NC1CC(=O)N(Cc2ccccc2C(F)(F)F)C1)c1cc2ccccc2cc1O` (centres unmarked) [NUCC-0202830], the IC50 lay within 10 to 50 µM.

Consider `COc1ccc(O)c(C(=O)NC2CC(=O)N(Cc3ccccc3C(F)(F)F)C2)c1` (centres unmarked) [NUCC-0202831], for which the IC50 fell in the range of 10 to 50 µM. As to `O=C(NC1CC(=O)N(Cc2ccccc2C(F)(F)F)C1)c1cc(F)ccc1O` (centres unmarked) [NUCC-0202832], the IC50 is 1 to 10 µM. With `O=C(NC1CC(=O)N(Cc2ccccc2C(F)(F)F)C1)c1cc(Cl)ccc1O` (centres unmarked) [NUCC-0202833], the IC50 was in the range of 1 to 10 µM. Regarding `O=C(NC1CC(=O)N(Cc2ccccc2C(F)(F)F)C1)c1cc(Br)ccc1O` (centres unmarked) [NUCC-0202834], the IC50 was in the range of 1 to 10 µM. In the case of `Cc1ccc(O)c(S(=O)(=O)NC2CC(=O)N(Cc3ccccc3C(F)(F)F)C2)c1` (centres unmarked) [NUCC-0202835], the half-inhibitory concentration (IC50) was more than 50 µM.

Turning to `CC(C)(CO)C(=O)NC1CC(=O)N(Cc2ccccc2C(F)(F)F)C1` (centres unmarked) [NUCC-0202851], the IC50 was more than 50 µM. Regarding `O=C(NC1CC(=O)N(Cc2ccccc2C(F)(F)F)C1)c1cc(I)ccc1O` (centres unmarked) [NUCC-0202852], the IC50 was in the range of 10 to 50 µM. Under `O=C(NC1CC(=O)N(Cc2ccccc2C(F)(F)F)C1)c1cc(C(F)(F)F)ccc1O` (centres unmarked) [NUCC-0202965] stands 1 to 10 µM; under `Cc1ccc(O)c(C(=O)NC2CC(=O)N(Cc3ccccc3C(=O)O)C2)c1` (centres unmarked) [NUCC-0202966], 1 to 10 µM; under `COC(=O)c1ccccc1CN1CC(NC(=O)c2cc(C)ccc2O)CC1=O` (centres unmarked) [NUCC-0202967], 1 to 10 µM. In the case of `Cc1ccc(O)c(C(=O)NC2CC(=O)N(Cc3ccccc3C(F)(F)F)C2)n1` (centres unmarked) [NUCC-0202968] it was more than 50 µM; in that of `Cc1ccc(O)c(C(=O)Nc2ccc(=O)n(Cc3ccccc3C(F)(F)F)c2)c1` [NUCC-0202969], more than 50 µM.
